Results from US20120283099A1, “CONTROLLING PLANTHOPPERS” (priority 2011, published 2012).
Several values for one entry are separate records, joined by “and”; a condition that tells them apart may be missing. Equal entries are not always repeated.

Test system: brown planthoppers, Nilaparvata lugens
Assay: Field efficacy on brown planthopper in transplanted rice (small-plot trials A-D)
Assay type: in vivo
Details: Sulfoxaflor 50 g/ha, Buprofezin 100 g/ha, mixture 50 + 100 g/ha
Experimental: Applications were made to transplanted rice, Oryza sativa, using small-plot efficacy methods. Chemicals were diluted in water and all treatments were applied using a backpack sprayer calibrated to deliver 500 liters of spray solution per hectare. Experimental plots measured 5 by 10 meters and each treatment was replicated three times in each trial. At the specified intervals after treatment, brown planthoppers, Nilaparvata lugens, were counted in 10 randomly selected hills per plot. Data were transformed to percent control relative to the untreated plots, then subjected to analysis of variance, and means were separated using Tukey's HSD (p=0.1). Expected control was calculated using the method of Colby and compared to observed control. See the Table Section for the results of the Field Trials.

[1] = Trial A, 1 DAT, relative to untreated plots

Compound | % Control [1] | % Control (Trial A, 3 DAT) | % Control (Trial A, 7 DAT) | % Control (Trial A, 10 DAT) | % Control (Trial A, 15 DAT) | % Control (Trial B, 1 DAT) | % Control (Trial B, 3 DAT) | % Control (Trial B, 7 DAT) | % Control (Trial B, 10 DAT) | % Control (Trial B, 15 DAT) | % Control (Trial C, 1 DAT) | % Control (Trial C, 3 DAT) | % Control (Trial C, 7 DAT) | % Control (Trial C, 10 DAT) | % Control (Trial C, 15 DAT) | % Control (Trial D, 1 DAT) | % Control (Trial D, 7 DAT) | % Control (Trial D, 10 DAT) | % Control (Trial D, 15 DAT)
CC(C)N1C(=O)N(c2ccccc2)CS/C1=N\C(C)(C)C [Buprofezin] | 34.9 a % and 34.9% | 72.4 b % and 72.4% | 72.4 b % and 72.4% | 49.4 b % and 49.4% | 49.0 b % and 49.0% | 24.5 a % and 24.5% | 73.0 b % and 73.0% | 80.2 b % and 80.2% | 63.2 b % and 63.2% | 67.7 b % and 67.7% | 31.2 ab % and 31.2% | 63.2 b % and 63.2% | 61.2 b % and 61.2% | 31.2 b % and 31.2% | 47.8 b % and 47.8% | 78.2 b % and 78.2% | 66.0 b % and 66.0% | 34.0 c % and 34.0% | 47.6 b % and 47.6%
CC(c1ccc(C(F)(F)F)nc1)S(C)(=O)=NC#N (centres unmarked) [Sulfoxaflor] | 11.2 b % and 11.2% | 43.5 c % and 43.5% | 32.8 c % and 32.8% | 6.8 c % and 6.9% | 19.3 c % and 19.3% | 29.4 a % and 29.4% | 63.6 b % and 63.6% | 62.8 c % and 62.8% | 48.8 b % and 48.8% | 50.3 c % and 50.3% | 13.5 bc % and 13.5% | 42.4 c % and 42.2% | 57.9 b % and 57.9% | 9.6 b % and 9.6% | 30.1 c % and 30.1% | 71.4 b % and 71.4% | 72.9 b % and 72.9% | 57.5 b % and 57.5% | 51.9 b % and 51.9%
